Among the data in ChEMBL document CHEMBL1137593, “Identification and optimisation of a series of substituted 5-pyridin-2-yl-thiophene-2-hydroxamic acids as potent histone deacetylase (HDAC) inhibitors” (Bioorg Med Chem Lett, 2007) are IC50 values, retold here.

What is called IC50 is the concentration needed to halve the response being measured. A low value points to inhibition by little substance.

SMILES strings stand for the structures.

For the first assay, the system named is MCF7. Put plainly: Inhibition of MCF7 cell proliferation (mean of two experiments). The class given is functional, cell-based. The conditions noted are these: Homo sapiens.
The molecule `O=C(NO)c1ccc(-c2ccc(CNCc3ccc(Cl)cc3)cn2)s1` gave an IC50 of 130 nM.

Molecule `O=C(NO)c1ccc(-c2ccc(CNCc3ccc4c(c3)OCCO4)cn2)s1` displayed an IC50 of 50 nM.

In turn, `O=C(NO)c1ccc(-c2ccc(CNCc3ccc(-c4ccccc4)cc3)cn2)s1` had an IC50 of 150 nM.

With `O=C(NO)c1ccc(-c2ccc(CNc3ccccc3)cn2)s1`, it took 370 nM to reach half-maximal inhibition (IC50).

`O=C(NO)c1ccc(-c2ccc(CCNCCc3ccccc3)cn2)s1` yielded an IC50 of 140 nM.

Regarding `O=C(NO)c1ccc(-c2ccc(CCNCc3ccc(F)cc3)cn2)s1`, the IC50 came out at 90 nM.

In the case of `O=C(NO)c1ccc(-c2cccc(CNCc3ccccc3)n2)s1`, the IC50 is 1900 nM.

Molecule `O=C(NO)c1ccc(-c2ccc(CNCCc3c[nH]c4ccccc34)cn2)s1` returned an IC50 of 120 nM.

`COc1ccccc1CCNCc1ccc(-c2ccc(C(=O)NO)s2)nc1` had an IC50 of 60 nM.

The molecule `O=C(NO)c1ccc(-c2ccc(CNCc3ccccc3Cl)cn2)s1` yielded an IC50 of 110 nM.

As to `O=C(NO)c1ccc(-c2ccc(CN3CCc4ccccc4C3)cn2)s1`, the IC50 was 220 nM.

With `O=C(NO)c1ccc(-c2ccc(CNCCOc3ccccc3)cn2)s1`, 110 nM corresponded to half-maximal inhibition (IC50).

Take `O=C(NO)c1ccc(-c2ccc(CNCCc3ccccc3Cl)cn2)s1`: the concentration for half-maximal inhibition (IC50) stood at 80 nM.

For `O=C(NO)c1ccc(-c2ccc(NCCc3ccccc3)cn2)s1`, 1470 nM corresponded to half-maximal inhibition (IC50).

`Cc1cccc(CCNCc2ccc(-c3ccc(C(=O)NO)s3)nc2)c1`: half-maximal inhibition (IC50) required 60 nM.

Take `Cc1ccccc1CCNCc1ccc(-c2ccc(C(=O)NO)s2)nc1`: half-maximal inhibition (IC50) was put at 90 nM.

In another assay the test system is HCT-116. Put plainly: cells. The class given is functional, cell-based. The following applies: Homo sapiens.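 Note: inhibition of HCT116 cell growth as proliferation read-out, each value averaged over two experiments.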
Description: Inhibition of HCT116 cell proliferation (mean of two experiments)
The molecule `O=C(NO)c1ccc(-c2ccc(CNCc3ccc4c(c3)OCCO4)cn2)s1` came in with an IC50 of 90 nM.

Take `O=C(NO)c1ccc(-c2ccc(CNCc3ccc(-c4ccccc4)cc3)cn2)s1`: the IC50 turned out to be 180 nM.

In the case of `O=C(NO)c1ccc(-c2ccc(CCNCc3ccc(F)cc3)cn2)s1`, the IC50 was determined as 140 nM.

Consider `O=C(NO)c1ccc(-c2ccc(CNCCc3c[nH]c4ccccc34)cn2)s1`, for which half-maximal inhibition (IC50) required 180 nM.

On to `COc1ccccc1CCNCc1ccc(-c2ccc(C(=O)NO)s2)nc1`, for which the IC50 worked out at 80 nM.

In the case of `O=C(NO)c1ccc(-c2ccc(CNCCc3ccccc3Cl)cn2)s1`, it took 80 nM to reach half-maximal inhibition (IC50).

For the molecule `Cc1cccc(CCNCc2ccc(-c3ccc(C(=O)NO)s3)nc2)c1`, the IC50 worked out at 90 nM.

The molecule `Cc1ccccc1CCNCc1ccc(-c2ccc(C(=O)NO)s2)nc1` showed an IC50 of 70 nM.

In another assay the test system is MDA-MB-231. Put plainly: cells. The following applies: Homo sapiens. In kind it is functional, cell-based.
Description: Inhibition of MDA-MB-231 cell proliferation (mean of two experiments)
In turn, `O=C(NO)c1ccc(-c2ccc(CNCc3ccc(Cl)cc3)cn2)s1` displayed an IC50 of 300 nM.

As to `O=C(NO)c1ccc(-c2ccc(CNc3ccccc3)cn2)s1`, the IC50 came out at 630 nM.

`O=C(NO)c1ccc(-c2ccc(CNCc3ccccc3Cl)cn2)s1` displayed an IC50 of 170 nM.

On to `O=C(NO)c1ccc(-c2ccc(CN3CCc4ccccc4C3)cn2)s1`, for which the IC50 turned out to be 860 nM.

As to `O=C(NO)c1ccc(-c2ccc(CNCCOc3ccccc3)cn2)s1`, the IC50 was 300 nM.

With `O=C(NO)c1ccc(-c2ccc(NCCc3ccccc3)cn2)s1`, half-maximal inhibition (IC50) required 3510 nM.

In the next assay the target is Histone deacetylase 1 (Homo sapiens, UniProt Q13547). In words: Inhibition of HDAC activity measured by HDAC Fluorescent Activity Assay (mean of two experiments). In kind it is functional.
Histone deacetylase 1, sequence (Q13547 whole entry): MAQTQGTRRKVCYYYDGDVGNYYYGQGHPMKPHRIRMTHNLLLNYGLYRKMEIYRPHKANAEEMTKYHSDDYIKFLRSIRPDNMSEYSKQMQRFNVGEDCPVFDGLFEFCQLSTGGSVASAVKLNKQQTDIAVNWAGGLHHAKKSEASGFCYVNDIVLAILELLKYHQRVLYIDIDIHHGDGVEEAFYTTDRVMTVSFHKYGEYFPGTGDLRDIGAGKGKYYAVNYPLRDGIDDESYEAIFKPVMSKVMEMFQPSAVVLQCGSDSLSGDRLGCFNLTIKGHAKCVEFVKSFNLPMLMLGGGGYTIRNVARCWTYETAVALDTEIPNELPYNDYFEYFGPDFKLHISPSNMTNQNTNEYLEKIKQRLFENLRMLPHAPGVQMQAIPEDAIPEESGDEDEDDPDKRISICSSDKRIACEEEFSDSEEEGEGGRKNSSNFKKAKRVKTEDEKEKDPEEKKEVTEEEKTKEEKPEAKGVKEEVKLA
Details: not given
The molecule `O=C(NO)c1ccc(-c2cccnc2)s1` had an IC50 of 1130 nM.

Molecule `O=C(NO)c1ccc(-c2ccncc2)s1` showed an IC50 of 1260 nM.

Molecule `O=C(NO)c1ccc(-c2ccc(CNCc3ccc(Cl)cc3)cn2)s1` gave a 50% inhibitory concentration (IC50) of 9 nM.

The molecule `O=C(NO)c1ccc(-c2ccc(CNCc3ccc4c(c3)OCCO4)cn2)s1` gave an IC50 of 11 nM.

On to `O=C(NO)c1ccc(-c2ccc(CNCc3ccc(-c4ccccc4)cc3)cn2)s1`, for which the IC50 was 7 nM.

`O=C(NO)c1ccc(-c2ccc(CNc3ccccc3)cn2)s1` had an IC50 of 16 nM.

The molecule `O=C(NO)c1ccc(-c2ccc(CCNCCc3ccccc3)cn2)s1` had an IC50 of 31 nM.

In the case of `O=C(NO)c1ccc(-c2ccc(CCNCc3ccc(F)cc3)cn2)s1`, the IC50 was found to be 13 nM.

The molecule `O=C(NO)c1ccc(-c2cccc(CNCc3ccccc3)n2)s1` yielded an IC50 of 359 nM.

Consider `O=C(NO)c1ccc(-c2ccc(CNCCc3c[nH]c4ccccc34)cn2)s1`, for which the IC50 came out at 8 nM.

Take `COc1ccccc1CCNCc1ccc(-c2ccc(C(=O)NO)s2)nc1`: the concentration for half-maximal inhibition (IC50) is 17 nM.

In turn, `O=C(NO)c1ccc(-c2ccc(CNCc3ccccc3Cl)cn2)s1` registered an IC50 of 7 nM.

The molecule `O=C(NO)c1ccc(-c2ccc(CN3CCc4ccccc4C3)cn2)s1` had an IC50 of 30 nM.

`O=C(NO)c1ccc(-c2ccc(CNCCOc3ccccc3)cn2)s1` displayed an IC50 of 11 nM.

Consider `O=C(NO)c1ccc(-c2ccc(CNCCc3ccccc3Cl)cn2)s1`, for which the 50% inhibitory concentration (IC50) came to 6 nM.

In turn, `O=C(NO)c1ccc(-c2ccc(NCCc3ccccc3)cn2)s1` had an IC50 of 80 nM.

Molecule `Cc1cccc(CCNCc2ccc(-c3ccc(C(=O)NO)s3)nc2)c1` showed an IC50 of 9 nM.

For the molecule `Cc1ccccc1CCNCc1ccc(-c2ccc(C(=O)NO)s2)nc1`, the IC50 stood at 8 nM.
